Reference: ChEMBL document CHEMBL3870333, “Synthesis of Keap1-phosphorylated p62 and Keap1-Nrf2 protein-protein interaction inhibitors and their inhibitory activity” (Bioorg Med Chem Lett, 2016)

Key:
Keap1/Nrf2 = Keap1/Nrf2 (Homo sapiens, UniProt Q14145); experiment: Inhibition of recombinant GST-His-tagged Keap1-DC domain (321 to 609 residues) (unknown origin) expressed in Escherichia coli/FAM-labeled Nrf2 (unknown origin) interaction measured after 30 mins by fluorescence polarization assay
[1] = target: Sequestosome-1/Kelch-like ECH-associated protein 1 (Homo sapiens, UniProt Q14145); experiment: Inhibition of recombinant GST-His-tagged Keap1-DC domain (321 to 609 residues) (unknown origin) expressed in Escherichia coli/FAM-labeled phosphorylated p62 (unknown origin) interaction measured after 30 mins by fluorescence polarization assay
Sequestosome-1/Kelch-like ECH-associated protein 1, sequence (Q14145 whole entry, the tested form may be a part): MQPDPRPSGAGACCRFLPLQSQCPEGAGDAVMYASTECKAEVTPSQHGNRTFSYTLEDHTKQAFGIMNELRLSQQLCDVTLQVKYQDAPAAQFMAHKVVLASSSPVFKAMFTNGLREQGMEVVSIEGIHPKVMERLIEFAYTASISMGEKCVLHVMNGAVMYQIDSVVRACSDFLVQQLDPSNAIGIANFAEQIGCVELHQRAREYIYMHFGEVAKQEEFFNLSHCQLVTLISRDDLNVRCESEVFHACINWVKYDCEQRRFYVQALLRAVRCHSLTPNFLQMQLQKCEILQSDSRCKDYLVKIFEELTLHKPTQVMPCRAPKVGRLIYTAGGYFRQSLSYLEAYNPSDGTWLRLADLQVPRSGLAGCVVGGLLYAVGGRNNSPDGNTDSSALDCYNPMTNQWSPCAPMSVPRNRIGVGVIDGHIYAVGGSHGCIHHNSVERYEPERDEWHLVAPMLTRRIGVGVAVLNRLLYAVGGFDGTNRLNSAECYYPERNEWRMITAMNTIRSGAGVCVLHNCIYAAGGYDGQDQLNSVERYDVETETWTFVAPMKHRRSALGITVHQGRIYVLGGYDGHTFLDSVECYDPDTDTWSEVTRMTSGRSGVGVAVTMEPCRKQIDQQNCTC
Sequestosome-1/Kelch-like ECH-associated protein 1, sequence (Q13501 whole entry, further chain, the tested form may be a part): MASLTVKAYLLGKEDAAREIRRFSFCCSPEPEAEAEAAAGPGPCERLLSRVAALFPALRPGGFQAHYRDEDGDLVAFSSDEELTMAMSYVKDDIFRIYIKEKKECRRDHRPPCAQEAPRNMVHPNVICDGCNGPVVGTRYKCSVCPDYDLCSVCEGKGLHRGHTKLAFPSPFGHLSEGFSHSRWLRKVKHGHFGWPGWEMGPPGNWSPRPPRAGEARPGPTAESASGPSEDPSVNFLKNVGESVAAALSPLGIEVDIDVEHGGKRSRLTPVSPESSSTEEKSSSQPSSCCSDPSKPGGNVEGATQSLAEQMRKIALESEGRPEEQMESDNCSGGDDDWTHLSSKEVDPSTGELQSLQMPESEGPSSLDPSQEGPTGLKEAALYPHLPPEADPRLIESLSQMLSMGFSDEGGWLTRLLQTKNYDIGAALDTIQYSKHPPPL

Homo sapiens = species on record: Homo sapiens; experiment: Selectivity index, ratio of IC50 for recombinant GST-His-tagged Keap1-DC domain (321 to 609 residues) (unknown origin) expressed in Escherichia coli/FAM-labeled Nrf2 (unknown origin) interaction to IC50 for recombinant GST-His-tagged Keap1-DC domain (321 to 609 residues) (unknown origin) expressed in Escherichia coli/FAM-labeled phosphorylated p62 (unknown origin) interaction

Keap1/Nrf2, sequence (Q16236 whole entry, the tested form may be a part): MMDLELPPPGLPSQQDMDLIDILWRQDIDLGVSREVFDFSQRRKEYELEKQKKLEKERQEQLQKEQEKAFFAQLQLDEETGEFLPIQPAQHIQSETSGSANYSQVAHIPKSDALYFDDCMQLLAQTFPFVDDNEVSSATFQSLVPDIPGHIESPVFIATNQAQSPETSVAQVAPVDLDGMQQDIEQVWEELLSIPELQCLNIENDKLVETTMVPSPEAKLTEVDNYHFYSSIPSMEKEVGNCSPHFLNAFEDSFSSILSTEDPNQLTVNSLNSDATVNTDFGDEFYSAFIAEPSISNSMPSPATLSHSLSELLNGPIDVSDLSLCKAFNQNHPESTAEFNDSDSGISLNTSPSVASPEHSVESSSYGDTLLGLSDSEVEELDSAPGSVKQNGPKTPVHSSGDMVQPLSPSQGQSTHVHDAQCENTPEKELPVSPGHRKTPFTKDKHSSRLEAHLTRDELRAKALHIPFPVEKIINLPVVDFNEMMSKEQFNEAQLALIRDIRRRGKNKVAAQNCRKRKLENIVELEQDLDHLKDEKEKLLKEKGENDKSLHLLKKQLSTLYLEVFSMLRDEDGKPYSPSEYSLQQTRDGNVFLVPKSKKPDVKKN
Keap1/Nrf2, sequence (Q14145 whole entry, the tested form may be a part): as the sequence (Q14145 whole entry, the tested form may be a part) above

| SMILES | IC50 (Keap1/Nrf2) [nM] | IC50 [1] [nM] | Ratio IC50 (Homo sapiens) |
| --- | --- | --- | --- |
| CCOc1ccc(S(=O)(=O)Nc2cc(CCC(=O)O)c(NS(=O)(=O)c3ccc(OCC)cc3)c3ccccc23)cc1 | 230 | 190 | 1.2 |
| CCOc1ccc(S(=O)(=O)Nc2cc(Sc3nc[nH]n3)c(NS(=O)(=O)c3ccc(OCC)cc3)c3ccccc23)cc1 | 1300 | 1000 | 1.3 |
| CCOc1ccc(S(=O)(=O)Nc2cc(CC(C)=O)c(NS(=O)(=O)c3ccc(OCC)cc3)c3ccccc23)cc1 | 6200 | 1500 | 4.1 |
| CCOc1ccc(S(=O)(=O)Nc2cc(CC(=O)O)c(NS(=O)(=O)c3ccc(OCC)cc3)c3ccccc23)cc1 | 320 | 230 | 1.4 |
| CCOc1ccc(S(=O)(=O)Nc2ccc(NS(=O)(=O)c3ccc(OCC)cc3)c3ccccc23)cc1 | 2800 | 1400 | 2 |
| CCOc1ccc(S(=O)(=O)Nc2cc(SCC(=O)O)c(NS(=O)(=O)c3ccc(OCC)cc3)c3ccccc23)cc1 | 200 | 180 | 1.1 |
| COc1ccc(S(=O)(=O)Nc2cc(CC(C)=O)c(NS(=O)(=O)c3ccc(OC)cc3)c3ccccc23)cc1 | 3200 | 2400 | 1.3 |
| CCOc1ccc(S(=O)(=O)Nc2cc(CCCC(=O)O)c(NS(=O)(=O)c3ccc(OCC)cc3)c3ccccc23)cc1 | 150 | – | 1 |
| CCOc1ccc(S(=O)(=O)Nc2cc(SCC(=O)OC)c(NS(=O)(=O)c3ccc(OCC)cc3)c3ccccc23)cc1 | 720 | 370 | 1.9 |
